Assay results published in patent US10596145B2, “Heterocyclic flavone derivatives, compositions, and methods related thereto” (Emory University, priority 2012, dated 2020).
“Also recorded” adds a separate entry of the source. Values belong to the molecule of their own block, whether it stands above or below them.

Experiments:
[1] = biological target: T1, TrkB (Rattus norvegicus, UniProt Q63604); test: TrkB activation in primary cortical neurons (immunoblotting); type: cell-based; settings: 500 nM, 15 min
T1 construct: endogenous in cells; host or cells: primary cortical neurons from E17 rat embryos
T1 sequence (Q63604 32-821): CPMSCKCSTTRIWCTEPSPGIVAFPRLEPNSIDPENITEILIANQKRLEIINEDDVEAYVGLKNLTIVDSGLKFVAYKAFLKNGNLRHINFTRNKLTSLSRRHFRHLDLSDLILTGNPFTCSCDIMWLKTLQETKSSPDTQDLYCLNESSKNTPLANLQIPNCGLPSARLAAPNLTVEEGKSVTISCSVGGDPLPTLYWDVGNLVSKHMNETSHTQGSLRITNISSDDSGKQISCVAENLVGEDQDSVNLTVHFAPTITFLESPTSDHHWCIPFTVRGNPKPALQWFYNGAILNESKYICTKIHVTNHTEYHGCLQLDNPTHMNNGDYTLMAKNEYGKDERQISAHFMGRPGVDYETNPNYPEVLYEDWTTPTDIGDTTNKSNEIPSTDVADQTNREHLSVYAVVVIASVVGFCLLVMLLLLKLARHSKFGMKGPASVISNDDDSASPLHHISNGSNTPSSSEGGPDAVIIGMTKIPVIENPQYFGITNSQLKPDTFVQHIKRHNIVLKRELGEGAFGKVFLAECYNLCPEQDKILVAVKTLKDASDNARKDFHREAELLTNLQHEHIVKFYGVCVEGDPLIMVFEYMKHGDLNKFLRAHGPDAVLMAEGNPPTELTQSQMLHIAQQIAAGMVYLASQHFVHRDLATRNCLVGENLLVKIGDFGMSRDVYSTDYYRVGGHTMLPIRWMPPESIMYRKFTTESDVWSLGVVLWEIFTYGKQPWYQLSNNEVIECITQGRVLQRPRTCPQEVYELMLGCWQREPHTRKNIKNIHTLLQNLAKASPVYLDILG
Protocol: Primary cortical cultures from E17 rat embryos were treated with 500 nM of various synthetic flavone derivatives for 15 min. The cell lysates (20 μg) were analyzed by the immunoblotting.
Rat primary neurons were treated with 500 nM various indicated compounds from 15 min. The neuronal lysates ([…]) were analyzed with various antibodies.
500 nM of different synthetic compounds were added to DIV 7 neurons for 15 min. The cell lysates were analyzed by immunoblotting with indicated p-Akt 473 antibodies.
Replacing the 3′-dimethylamino group or 4′-morpholino group was tested for TrkB agonistic activity. To compare the TrkB activation by these compounds, primary cortical cultures were prepared and treated them with 500 nM of various compounds for 15 min and collected the cell lysates. […] The p-Akt ELISA analysis results were similar to the TrkB activation pattern (FIG. 2B, lower panel).

[2] = In vivo metabolism studies of 7,8-DHF
From the text: Among the modifications, glucuronidation and sulfation are thought to be responsible for the in vivo metabolism of the flavonoids. In addition, the O-methylated metabolites were detected in both the plasma and brain samples after oral administration. These modification pathways may explain the relatively short half-life of 7,8-DHF. Alteration of this labile group into the bioisosteric imidazole derivative escalates the PK profiles in compound o.

[3] = Metabolite investigation of the methylated metabolites of 7,8-DHF
Protocol: In order to increase the hydrophobicity, EU-B-related compounds were prepared by keeping the urea functional group. In metabolite investigation of the methylated metabolites of 7,8-DHF, it was discovered that that 7-methoxy-8-hydroxy metabolite is active. A methyl group was added on the urea group.

[4] = biological target: T2, TrkB (Mus musculus, UniProt P15209); test: TrkB phosphorylation in mouse brain after oral administration (immunoblotting, immunohistochemistry); type: in vivo
T2 construct: from tissue; host or cells: mouse brain (hippocampus, cortex), C57BL/6
T2 sequence (P15209 32-821): as the sequence (Q63604 32-821) above, with M3T, T9S, T10A, I32V, K63R, G84S, T153M, I185L, T394S, N770S counted along it
Protocol: One mg/kg of various indicated compounds were orally administrated into C57 BL/6J mice and TrkB phosphorylation and its downstream signaling cascades including Akt and MAPK in the hippocampus of mouse brain were analyzed by immunoblotting at 4 h. […] The downstream p-Akt and p-MAPK activity coupled to the TrkB activation patterns.
Time course assay with 4′-dimethylamino-7,8-imidazole flavone. One mg/kg of compound (i) and compound (m) were orally administrated into C57 BL/6J mice and TrkB phosphorylation and its downstream signaling cascades including Akt in mouse brain were analyzed by immunoblotting at various time points. TrkB activation by compound m peaked at 4 h, whereas the maximal TrkB activation by compound i in mouse brain occurred at 1-2 h. Arrows indicate the p-TrkB in mature glycosylated or unglycosylated forms (top panels). The downstream Akt activation pattern tightly correlated with the upstream TrkB activation.
(§1) Male C57BL/6 mice aged of two months were administrated orally with 4′-DMA-7,8-DHF derivatives at a single dose of 1 mg/kg for 4 h. The control mice were injected with saline. The mice were sacrificed and brains were homogenated and ultracentrafuged. The supernatant (40 μg) was employed for SDS-PAGE and immunoblotting analysis with indicated antibodies, respectively. Male C57BL/6 mice aged of two months were administrated orally with compound (i) or (m) at the dose of 5 mg/kg/day each and compound o or p at the dose of 2.5 mg/kg/day each for 21 days. BrdU (100 mg/kg) was i. p. injected two hours before the TrkB agonist treated animals were sacrificed and the hippocampal section lysates were analyzed by immunoblotting with p-TrkB and total TrkB antibodies, p-AKT ELISA.
Brain tissues were fixed in 4% paraformaldehyde overnight followed by paraffin embedding. Sections of 6 μm were cut. For immunohistochemical staining, brain sections were deparaffinized in xylene and rehydrated in graded alcohols. Endogenous peroxidase activity was blocked by 3% hydrogen peroxide for 5 min and all slides were boiled in 10 mM sodium citrate buffer (pH 6.0) for 10 min. Phosphorylated TrkB 816 and TrkB were detected using specific antibodies. Paraffin section were deparaffinized in xylene and rehydrated gradient ethanol solution. Samples were boiled in 10 mM sodium citrate buffer for 20 min for antigen retrieval purpose. Brain sections were incubated with anti-TrkB (BD Biosciences, San Jose, Calif.) 1:50, p-TrkB 1:300 dilution. Secondary antibody was applied using anti-rabbit-Alexa 594 (red), anti-mouse-fluorescein isothiocyanate (FITC) (green). DAPI (blue) was used for nuclear staining.

[5] = test system: Akt; test: Downstream Akt activation in mouse brain (p-Akt immunoblotting, p-Akt 473 ELISA); type: in vivo
Protocol: PathScan Phospho-Akt1 (Ser473) Sandwich ELISA kit was purchased from Cell Signaling (Cat. #7160). 100 μl sample in sample diluent (supplied in the kit) was added to each well and incubated overnight at 4° C. After 4× wash with 200 ul wash buffer (supplied in the kit), 100 ul/well detection antibody was added and incubated for 1 hour at 37° C. After 4× wash, 100 μl of HRP-linked secondary antibody (supplied in the kit) was added and incubated for 30 minutes at 37° C. After a final wash, 100 μl of TMB substrate was added to each well and incubated for 10 minutes at 37° C. The reaction was stopped by adding 100 μl/well stop solution. Record the values of each well using microplate reader at 450 nm and 650 nm. The optical density was determined by the subtraction of the reading at 650 nm from the reading s at 450 nm.
as §1

[6] = In vivo pharmacokinetic studies in mice; parameters: species or system mouse; settings: mice
Protocol: For compound a, the standard dosage of 1 mg/kg via i.v. injection and 5 mg/kg for P.O. route was employed. […] Presumably, the dosage is too low for the in vivo PK assay. Thus, the doses of the tested compound o were increased. […] Moreover, the bioavailability is around 2% for compound o at a 10 mg/kg dosage.
Twenty to thirty grams mice within the age of 6-8 weeks old were administrated with the indicated compounds i. v. or orally. At different time points (3, 10, 30, 60, 120, 240, 360 and 480 min), blood aliquots (300-400 μl) were collected in tubes coated with lithium heparin, mixed gently, then kept on ice and centrifuged at 2500×g for 15 min at 4° C., within 1 h of collection. The plasma was then harvested and kept frozen at −20° C. until further processing. For each time point, 3 mice/group were employed. The plasma samples were analyzed by HPLC.

[7] = test system: HepG2 cells; test: In vitro cytotoxicity assay with HepG2 cells; type: cell-based; settings: micronucleus and comet assays
Protocol: HepG2 cells were treated with various concentrations of flavonoids for 24 h. The drug-treated cells were subjected to trypan blue exclusive assay. Data are presented as mean±SEM. (n=3, ***P<0.0001 vs vehicle).
In vitro and in vivo ADMET (ADME plus toxicity) of certain compounds were examined. […] Micronuclei formation is an important endpoint in genotoxicity study. […] Next, a Comet assay was performed with 100 μM drug-treated HepG2 cells. As a positive control, etoposide, a topoisomerase inhibitor, which causes DNA strand breaks was used.

[8] = biological target: T3, CYP1A2 (Homo sapiens, UniProt P05177); test: CYP screen inhibition; type: in vitro ADME; settings: at 3 μM
T3 sequence (P05177 1-516): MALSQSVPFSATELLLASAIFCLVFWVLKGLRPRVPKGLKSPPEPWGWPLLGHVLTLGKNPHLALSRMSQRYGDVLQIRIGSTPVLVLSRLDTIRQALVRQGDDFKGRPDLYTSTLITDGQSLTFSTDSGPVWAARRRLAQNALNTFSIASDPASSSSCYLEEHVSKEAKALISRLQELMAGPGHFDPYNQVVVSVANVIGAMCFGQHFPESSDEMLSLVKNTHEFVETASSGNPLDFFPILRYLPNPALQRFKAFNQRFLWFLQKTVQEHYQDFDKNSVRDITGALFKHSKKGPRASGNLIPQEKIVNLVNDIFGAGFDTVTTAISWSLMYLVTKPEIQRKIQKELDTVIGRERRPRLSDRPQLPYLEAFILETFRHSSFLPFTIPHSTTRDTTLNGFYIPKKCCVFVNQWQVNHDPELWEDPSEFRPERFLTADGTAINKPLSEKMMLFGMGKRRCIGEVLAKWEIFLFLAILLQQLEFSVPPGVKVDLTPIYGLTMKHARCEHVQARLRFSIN
Protocol: At 30 μM, the inhibition patterns contained similar trends. To test the possible cardiovascular toxicity, hERG inhibition triggered by compound o was examined.

[9] = test system: C57BL/6J mice; test: Locomotor activity assay; type: in vivo, mouse; settings: 2.5 mg/kg oral, 3 weeks
Protocol: The above drug-treated mice were subjected locomotor activity at day 22. […] Data are presented as mean±SEM.
Locomotor activity was assessed using an automated system (San Diego Instruments, La Jolla, Calif., USA) with photobeams that recorded ambulations (consecutive beam breaks). Drug-treated mice were placed in the locomotor chambers, and their activity was recorded for 2 h with 30 min interval.

[10] = Human liver microsomal stability assay; type: in vitro ADME; settings: human liver microsomes, 1 h incubation
From the text: (§2) To explore these compounds' in vitro ADMET profiles, we conducted numerous in vitro assays.

[11] = test system: C57BL/6J mice; test: Forced swim test; type: in vivo, mouse; settings: 2.5 mg/kg oral, 21 days
Protocol: Male C57BL/6J mice (6 mice/group) were orally administrated by gavage with 5 mg/kg compound (m) or compound (i) and vehicle solvent saline for 21 days and subjected to a forced swim test (6 min, immobility recorded in the last 4 min). Data are presented as mean±SEM. (n=6, ***P<0.0001 vs vehicle, Student t-test).
Forced swim test. Male C57BL/6J mice (8 mice/group) were orally administrated by gavage with 2.5 mg/kg compound o or compound p and vehicle solvent saline for 21 days and subjected to a forced swim test (6 min, immobility recorded in the last 4 min). […] Data are presented as mean±SEM.
Adult male mice (2-3 months old) were randomly submitted to a forced swim test without a preswim. Test compounds were orally administrated by gavage for 21 days. The mice were allowed to adapt to the test room for 2 days. The mice were placed in a clear glass cylinder with a diameter of 16 cm, half-filled with clear water at 24° C.

[12] = Reactive metabolic screening assay; type: in vitro ADME; settings: liver microsomal lysates
From the text: as §2

- TrkB activation (p-TrkB immunoblotting) [1]: comparable activity as compound a
Structure (SMILES): CN(C)c1cccc(-c2cc(=O)c3ccc(O)c(O)c3o2)c1 [3′-dimethylamino-7,8-DHF]

- TrkB activation (p-TrkB immunoblotting) [1]: comparable activity as compound a
Structure (SMILES): O=c1cc(-c2ccc(N3CCOCC3)cc2)oc2c(O)c(O)ccc12 [4′-morpholino-7,8-DHF]

Structure (SMILES): O=c1cc(-c2ccccc2)oc2c(O)c(O)ccc12 [7,8-DHF, 7,8-dihdyroxyflavone]
- in vivo metabolic modifications [2]: subjected to oxidation, glucuronidation, sulfation and methylation

Structure (SMILES): COc1ccc2c(=O)cc(-c3ccccc3)oc2c1O [7-methoxy-8-hydroxy metabolite]
- activity of methylated metabolite [3]: is active

- AUClast ([6]; 1 mg/kg i.v.): about 5930 min*ng/ml
- in vivo half-life, t1/2 ([6]; 1 mg/kg i.v.): around 9 min
- bioavailability ([6]; 5 mg/kg P.O.): not measurable
Structure (SMILES): CN(C)c1ccc(-c2cc(=O)c3ccc(O)c(O)c3o2)cc1 [compound a, 4′-DMA-7,8-DHF, reference compound]
- TrkB activation in mouse brain ([4]; 1 mg/kg oral, hippocampus, at 4 h): activated the TrkB receptor; also recorded: strongest TrkB stimulatory effect
- downstream p-Akt and p-MAPK signalings ([5]; 1 mg/kg oral, at 4 h): strongly activated

Structure (SMILES): O=c1cc(-c2ccc(N3CCCC3)cc2)oc2c1ccc1nc[nH]c12 [compound n, 8-(4′-(pyrrolidino-)phenyl)chromeno[7,8-d]imidazol-6(1H)-one]
- cytotoxicity or genotoxicity (overall conclusion) [7]: negligible cytotoxicity or genotoxicity

Structure (SMILES): O=c1cc(-c2ccc(N3CCCC3)cc2)oc2c1ccc1cc[nH]c12 [compound p, 2-(4-(pyrrolidin-1-yl)phenyl)pyrano[3,2-g]indol-4(9H)-one]
- TrkB phosphorylation after chronic treatment (immunoblotting) ([4]; 2.5 mg/kg/day oral, 21 days): markedly activated TrkB receptor; also recorded: evidently elevated TrkB phosphorylation
- TrkB phosphorylation in hippocampus (immunohistochemistry, anti-p-TrkB 816) ([4]; 2.5 mg/kg/day oral, chronic): elevated TrkB phosphorylation in hippocampus
- CYP1A2 inhibition [8]: 37.4%
- locomotor activity [9]: neither compound o nor p altered the motion activity
- remaining unchanged after incubation [10]: 1.2%
- Akt activation (quantitative p-Akt ELISA) ([5]; 2.5 mg/kg/day oral, 3 weeks): notably activated Akt
- TrkB activation (p-TrkB immunoblotting) [1]: higher activity than compound m
- immobility in forced swim test [11]: but not compound p significantly decreased the immobility
- cytotoxicity or genotoxicity (overall conclusion) [7]: negligible cytotoxicity or genotoxicity
- reactive metabolite / adduct formation [12]: formed numerous adducts
